The text below walks through data of PMC8882856, “The affinity and selectivity of α‐adrenoceptor antagonists, antidepressants and antipsychotics for the human α2A, α2B, and α2C‐adrenoceptors and comparison with human α1 and β‐adrenoceptors” (Pharmacology Research & Perspectives, 2022).

Read-outs that look alike come from different tables or passages of the source.

Assay [1] has as its target T1, human α2C‐adrenoceptor (Homo sapiens, UniProt P18825).
T1 sequence (P18825 1-462): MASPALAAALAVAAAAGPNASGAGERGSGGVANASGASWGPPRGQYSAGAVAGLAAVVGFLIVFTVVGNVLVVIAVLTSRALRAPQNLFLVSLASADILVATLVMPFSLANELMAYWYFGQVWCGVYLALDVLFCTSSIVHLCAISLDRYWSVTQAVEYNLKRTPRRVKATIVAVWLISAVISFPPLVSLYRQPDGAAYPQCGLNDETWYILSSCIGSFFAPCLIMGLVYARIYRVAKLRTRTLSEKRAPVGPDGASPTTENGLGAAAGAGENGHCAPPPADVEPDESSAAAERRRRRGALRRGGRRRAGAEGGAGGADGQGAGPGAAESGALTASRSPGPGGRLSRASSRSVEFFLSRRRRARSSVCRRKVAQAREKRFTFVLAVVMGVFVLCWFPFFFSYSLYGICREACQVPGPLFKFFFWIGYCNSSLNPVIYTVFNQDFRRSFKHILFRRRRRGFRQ
Kind of assay: ^3H‐rauwolscine whole cell competition binding, CHO‐α2C cells. The settings on record: for Selectivity ratio α2A vs α2C (higher affinity for α2C) / Selectivity ratio α2B vs α2C (higher affinity for α2C): ratio of KD values.

Assay [2] addresses T2, human α2A‐adrenoceptor (Homo sapiens, UniProt P08913).
T2 sequence (P08913 1-465): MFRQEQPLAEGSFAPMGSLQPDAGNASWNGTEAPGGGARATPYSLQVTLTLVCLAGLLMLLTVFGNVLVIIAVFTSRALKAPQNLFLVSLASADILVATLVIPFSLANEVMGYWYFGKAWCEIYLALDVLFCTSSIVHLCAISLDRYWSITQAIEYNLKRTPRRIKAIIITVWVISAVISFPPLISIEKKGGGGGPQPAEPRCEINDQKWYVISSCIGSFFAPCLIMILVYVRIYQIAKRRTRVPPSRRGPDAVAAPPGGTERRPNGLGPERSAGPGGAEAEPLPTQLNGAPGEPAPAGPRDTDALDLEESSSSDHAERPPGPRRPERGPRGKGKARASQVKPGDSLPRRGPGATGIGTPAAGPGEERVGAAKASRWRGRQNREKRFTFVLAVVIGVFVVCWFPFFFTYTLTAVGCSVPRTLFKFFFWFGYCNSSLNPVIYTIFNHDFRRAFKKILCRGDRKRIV
Kind of assay: cell-based.

Assay [3] concerns the target T1, human α2C‐adrenoceptor. Nature of the assay: cell-based.
For a further assay, the target named is T3, human α2B‐adrenoceptor (Homo sapiens, UniProt P18089).
T3 sequence (P18089 1-450): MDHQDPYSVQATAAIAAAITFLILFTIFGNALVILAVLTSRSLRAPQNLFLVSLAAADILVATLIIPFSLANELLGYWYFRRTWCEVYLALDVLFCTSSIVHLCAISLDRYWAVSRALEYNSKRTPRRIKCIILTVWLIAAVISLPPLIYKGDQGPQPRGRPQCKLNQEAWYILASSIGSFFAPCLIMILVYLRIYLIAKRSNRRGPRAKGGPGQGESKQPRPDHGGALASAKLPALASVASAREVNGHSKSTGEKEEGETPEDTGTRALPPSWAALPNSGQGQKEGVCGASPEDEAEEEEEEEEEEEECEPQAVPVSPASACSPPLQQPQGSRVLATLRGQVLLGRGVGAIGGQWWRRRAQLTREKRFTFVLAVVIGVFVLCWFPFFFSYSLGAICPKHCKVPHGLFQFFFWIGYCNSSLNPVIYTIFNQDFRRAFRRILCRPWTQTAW
Nature of the assay: ^3H‐rauwolscine whole cell competition binding, CHO‐α2B cells.

For assay [4], the target named is T4, human β1‐adrenoceptor (Homo sapiens, UniProt P08588). Kind of assay: cell-based.
T4 sequence (P08588 whole entry): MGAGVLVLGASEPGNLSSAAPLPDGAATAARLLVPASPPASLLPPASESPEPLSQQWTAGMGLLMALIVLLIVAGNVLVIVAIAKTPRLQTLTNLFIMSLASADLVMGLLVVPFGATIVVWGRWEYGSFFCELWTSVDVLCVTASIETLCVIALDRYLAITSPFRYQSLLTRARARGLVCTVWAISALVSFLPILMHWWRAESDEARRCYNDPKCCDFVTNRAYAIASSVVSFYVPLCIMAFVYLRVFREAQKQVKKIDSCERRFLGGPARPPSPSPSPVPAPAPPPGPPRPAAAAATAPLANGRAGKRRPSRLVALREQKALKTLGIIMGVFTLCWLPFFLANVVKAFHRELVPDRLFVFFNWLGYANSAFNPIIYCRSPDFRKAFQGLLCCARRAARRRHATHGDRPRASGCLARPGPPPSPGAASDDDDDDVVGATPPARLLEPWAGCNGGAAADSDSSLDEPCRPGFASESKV
Another assay has as its target human β2‐adrenoceptor (Homo sapiens, UniProt P07550). It counts as binding. The settings on record: for IC50: read-out: IC50 (log) β2, IC50>top concentration used (converted); for Kd / Log KD β2: mean ± s.e.mean; for Kd: read-out: Log KD β2 (converted).
In assay [5] the target is T4, human β1‐adrenoceptor. The settings on record: for Log KD β1: mean ± s.e.mean.
Assay [6] has as its target T2, human α2A‐adrenoceptor. Nature of the assay: ^3H‐rauwolscine whole cell competition binding, CHO‐α2A cells.
The target in assay [7] is T1, human α2C‐adrenoceptor.
In assay [8] the target is T2, human α2A‐adrenoceptor.
Where [9] appears, read: ^3H‐CGP12177 whole cell binding, log values, ^app = apparent KD, 'no binding to' = log top concentration.
Where [10] appears, read: given as log KD (negative values), 3H-CGP12177 whole cell binding, CHO cells.

human β2‐adrenoceptor, sequence (P07550 whole entry): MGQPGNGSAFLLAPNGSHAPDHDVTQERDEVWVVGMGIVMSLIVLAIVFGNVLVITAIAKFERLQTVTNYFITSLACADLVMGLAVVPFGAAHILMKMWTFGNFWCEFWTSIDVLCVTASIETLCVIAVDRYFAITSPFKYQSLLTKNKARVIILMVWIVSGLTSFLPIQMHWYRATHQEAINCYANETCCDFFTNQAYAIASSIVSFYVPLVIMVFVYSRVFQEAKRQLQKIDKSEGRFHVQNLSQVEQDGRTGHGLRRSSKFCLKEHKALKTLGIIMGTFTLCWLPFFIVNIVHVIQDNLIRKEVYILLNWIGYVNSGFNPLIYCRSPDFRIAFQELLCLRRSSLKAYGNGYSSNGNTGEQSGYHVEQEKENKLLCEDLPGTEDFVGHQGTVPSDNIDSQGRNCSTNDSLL

With `CN(C)CCCN1c2ccccc2CCc2ccccc21` [imipramine], the “Selectivity ratio α2A vs α2C (higher affinity for α2C)” value (shortened to “Selectivity ratio α2A vs α2C”) at human α2C‐adrenoceptor [1] amounted to 4.4. The Kd at human α2A‐adrenoceptor [2] is 5.62 µM; on human α2C‐adrenoceptor [3], 1.29 µM; at human α2B‐adrenoceptor it was 0.437 µM. In addition, the “Selectivity ratio α2A vs α2B (higher affinity for α2B)” value on human α2B‐adrenoceptor (ratio of KD values) came to 12.9. In addition, the “Selectivity ratio α2B vs α2C (higher affinity for α2B)” value on human α2B‐adrenoceptor (ratio of KD values) was determined as 3.0. Also, the IC50 against human β1‐adrenoceptor [4] was greater than 100 µM; at human β2‐adrenoceptor (^3H‐CGP12177, log value), greater than 100 µM.

In the case of `O=C1[C@@H]2[C@H]3CC[C@H](C3)[C@@H]2C(=O)N1C[C@@H]1CCCC[C@H]1CN1CCN(c2nsc3ccccc23)CC1` [lurasidone], the Kd is 0.0457 µM at human α2C‐adrenoceptor [3] and 0.0437 µM at human α2B‐adrenoceptor. The IC50 at human β2‐adrenoceptor (^3H‐CGP12177, log value) was greater than 10 µM.

For the molecule `CNCCCN1c2ccccc2CCc2ccc(Cl)cc21` [norclomipramine], at human α2C‐adrenoceptor [1], the “Log KD α2C” value is on record as −5.80 ± 0.07^app, the “Selectivity ratio α2A vs α2C” value stood at 3.2 and the “Selectivity ratio α2B vs α2C (higher affinity for α2C)” value amounted to 1.1. Moreover, the “IC50 (log) β1, IC50>top concentration used” value against human β1‐adrenoceptor [5] (^3H‐CGP12177, log value) is on record as “IC50>−4.5”. Besides, the “Log KD α2A” value at human α2A‐adrenoceptor [6] is −5.29 ± 0.09^app. Further, on human α2B‐adrenoceptor, the “Log KD α2B” value is listed as −5.74 ± 0.04^app. In addition, the “Selectivity ratio α2A vs α2B (higher affinity for α2B)” value on human α2B‐adrenoceptor (ratio of KD values) worked out at 2.8. The “IC50 (log) β2, IC50>top concentration used” value at human β2‐adrenoceptor (^3H‐CGP12177, log value) is “IC50>−4.5”.

As for `Fc1ccc([C@@H]2CCNC[C@H]2COc2ccc3c(c2)OCO3)cc1` [paroxetine], the IC50 on human α2C‐adrenoceptor [1] is greater than 10 µM; against human β1‐adrenoceptor [4], greater than 31.6 µM; on human β2‐adrenoceptor (^3H‐CGP12177, log value), greater than 31.6 µM.

On to `CC(CN1c2ccccc2Sc2ccccc21)N(C)C` (stereo not shown) [promethazine], for which the Kd at human α2C‐adrenoceptor [3] is 2.88 µM. Also, the IC50 on human β1‐adrenoceptor [4] is greater than 100 µM; on human β2‐adrenoceptor (^3H‐CGP12177, log value), greater than 100 µM.

Molecule `CNCCCC1c2ccccc2C=Cc2ccccc21` [protriptyline] showed a Kd on human α2A‐adrenoceptor [2] of 10 µM.

With `O=C1NCN(c2ccccc2)C12CCN(CC1COc3ccccc3O1)CC2` (stereo not shown) [spiroxatrine], the Kd on human α2A‐adrenoceptor [2] is 0.107 µM; at human α2C‐adrenoceptor [3] it was 0.00182 µM. Besides, the IC50 at human β1‐adrenoceptor [4] was greater than 31.6 µM; at human β2‐adrenoceptor (^3H‐CGP12177, log value), greater than 31.6 µM.

Turning to `CCN1CCCC1CNC(=O)c1cc(S(N)(=O)=O)ccc1OC` (stereo not shown) [sulpiride], the Kd at human α2A‐adrenoceptor [2] was 31.6 µM. For the same molecule, the IC50 is greater than 1000 µM on human β1‐adrenoceptor [4] and greater than 1000 µM on human β2‐adrenoceptor (^3H‐CGP12177, log value).

With `CCOc1ccccc1OCCN[C@H](C)Cc1ccc(OC)c(S(N)(=O)=O)c1` [tamsulosin], the Kd on human α2C‐adrenoceptor [1] was 0.389 µM; on human α2A‐adrenoceptor [2], 0.468 µM; at human α2B‐adrenoceptor, 4.9 µM; at human β1‐adrenoceptor [4], 0.55 µM; at human β2‐adrenoceptor (setting [9]) it was 0.832 µM. The “Selectivity ratio α2A vs α2C” value at human α2C‐adrenoceptor [1] worked out at 1.2. Besides, the “Selectivity ratio α2B vs α2C (higher affinity for α2C)” value at human α2C‐adrenoceptor [1] is 12.6. On human α2A‐adrenoceptor [6] (ratio of KD values), the “Selectivity ratio α2A vs α2B (higher affinity for α2A)” value amounted to 10.5.

Regarding `COc1cc2nc(N3CCN(C(=O)C4CCCO4)CC3)nc(N)c2cc1OC` (stereo not shown) [terazosin], the “Log KD β1” value on human β1‐adrenoceptor [5] (setting [9]) is recorded as “No binding to −4”; at human β1‐adrenoceptor [5] (setting [10]) it was “No binding to -4”. Also, the Kd at human α2A‐adrenoceptor [2] was 6.61 µM. Further, the “Log KD β2” value was “No binding to −4” at human β2‐adrenoceptor (setting [9]) and “No binding to -4” at human β2‐adrenoceptor (setting [10]).

On to `COc1ccccc1N1CCN(CCCNc2cc(=O)n(C)c(=O)n2C)CC1` [urapidil], for which the results for the Kd at human α2A‐adrenoceptor [2] and on human β2‐adrenoceptor (setting [9]) were 3.24 µM and 10 µM, respectively.

Consider `COc1ccc(C(CN(C)C)C2(O)CCCCC2)cc1` (stereo not shown) [venlafaxime], for which the Kd was 182 µM at human α2C‐adrenoceptor [7] and 346.7 ± 3.01 µM at human α2A‐adrenoceptor [8]. Moreover, the “Log KD β1” value on human β1‐adrenoceptor [5] (setting [9]) is reported as −3.80 ± 0.11^app. For the same molecule, at human β2‐adrenoceptor (setting [9]), the “Log KD β2” value was −4.13 ± 0.13^app.
